Experimental data reported in patent US8987285B2, “Pharmaceutical compositions, dosage forms and new forms of the compound of formula (I), and methods of use thereof” (Portola Pharmaceuticals, Inc., priority 2010, dated 2015).

Key:
[1] = cited from earlier work
[2] = Surface tension by Kibron Delta-8 tensiometer (microtensiometry); details: for Surface Active: 24.1 ° C.

| Compound | pKa(s) B = Base [1] | LogP [1] | pKa(s) A = acid [1] | other results |
| --- | --- | --- | --- | --- |
| CNCCC=C1c2ccccc2CCc2ccccc21 [Nortriptyline] | B 10.21 |  |  |  |
| CCN(CC)CCNC(=O)c1cc(Cl)c(N)cc1OC [Metoclopramide] | B 9.24 |  |  |  |
| CC(C)(C)NCC(O)COc1cccc2c1CC(O)C(O)C2 (stereo not drawn) [Nadolol] | B 9.696 |  |  |  |
| O=C(O)c1cc(/N=N/c2ccc(S(=O)(=O)Nc3ccccn3)cc2)ccc1O [Sulfasalazine] |  | 3.61 |  |  |
| CN(C)CCCN1c2ccccc2CCc2ccccc21 [Imipramine] | B 9.54 |  |  |  |
| NS(=O)(=O)c1cc2c(cc1Cl)N=C(CSCc1ccccc1)NS2(=O)=O [Benzthiazide] |  | 1.73 |  |  |
| CC(C(=O)O)c1ccc2c(c1)[nH]c1ccc(Cl)cc12 (stereo not drawn) [Carprofen] |  | 4.29 | A 4.247 |  |
| NC(N)=Nc1nc(CSCCC(N)=NS(N)(=O)=O)cs1 [Famotidine] | 6.77 | −0.81 | 11.01 |  |
| Oc1cccc2ccccc12 [Form 1-naphthol, 1-naphthol] |  |  | A 9.175 |  |
| O=C1CN(/N=C/c2ccc([N+](=O)[O-])o2)C(=O)N1 [Nitrofurantoin] |  | −0.54 | A 7.05 |  |
| CNc1cc2[nH]c(=O)n(-c3ccc(NC(=O)[N-]S(=O)(=O)c4ccc(Cl)s4)cc3)c(=O)c2cc1F.[K+] [potassium salt of formula (I)] |  |  |  | CMC ([2]; pH 6.0 phosphate buffer): 0.1 mg/mL; Surface tension at CMC ([2]; pH 6.0 phosphate buffer): 62 mN/m; maximum surface pressure change ([2]; pH6 phosphate buffer): 11 mN/m; CMC ([2]; pH 6.5 phosphate buffer): >1.7 mg/mL; Surface tension at CMC ([2]; pH 6.5 phosphate buffer): 68 mN/m; Surface Active ([2]; pH 6.5 phosphate buffer): Yes; CMC ([2]; pH 7.0 phosphate buffer): >2.7 mg/mL; Surface tension at CMC ([2]; pH 7.0 phosphate buffer): 65 mN/m; Surface Active ([2]; pH 7.0 phosphate buffer): Yes; CMC ([2]; pH 7.5 phosphate buffer): >4.0 mg/mL; Surface tension at CMC ([2]; pH 7.5 phosphate buffer): 63 mN/m; Surface Active ([2]; pH 7.5 phosphate buffer): Yes; CMC ([2]; pH 8.0 phosphate buffer): >3.5 mg/mL; Surface tension at CMC ([2]; pH 8.0 phosphate buffer): 63 mN/m; Surface Active ([2]; pH 8.0 phosphate buffer): Yes |
| Nc1nc2ncc(CNc3ccc(C(=O)N[C@@H](CCC(=O)O)C(=O)O)cc3)nc2c(=O)[nH]1 [Folic Acid] | 2.33 | 0.2 |  |  |
| NC12CC3CC(CC(C3)C1)C2 [Amantadine] | B 10.48 | 2.41 |  |  |
| CC1CCc2cc(F)cc3c(=O)c(C(=O)O)cn1c23 (stereo not drawn) [Flumequine] |  | 1.72 | A 6.37 |  |
| CC(C)(C)c1ccc(C(O)CCCN2CCC(C(O)(c3ccccc3)c3ccccc3)CC2)cc1 (stereo not drawn) [Terfenadine] | B 9.25 | 5.42 |  |  |
| Cc1ccccc1C(OCCN(C)C)c1ccccc1 (stereo not drawn) [Orphenadrine] | B 9.037 | 3.84 |  |  |
| O=C(O)c1ccc2ccccc2c1 [2-naphthoic acid] |  | 3.28 | A 3.884 |  |
| Nc1ccc(S(=O)(=O)Nc2nccs2)cc1 [Sulfathiazole] | B 2.124 A | 0.07 | 7.168 |  |
| CCN(CC)Cc1cc(Nc2ccnc3cc(Cl)ccc23)ccc1O [Amodiaquin] |  | 4.2 | A 11.49 |  |
| CCn1cc(C(=O)O)c(=O)c2cc(F)c(N3CCNCC3)cc21 [Norfloxacin] | 8.575 | −1.03 | A 6.324 B |  |

| Compound | pKa(s) B = Base [1] | LogP [1] | pKa(s) A = acid [1] | other results |
| --- | --- | --- | --- | --- |
| CN(C)CCC=C1c2ccccc2CCc2ccccc21 [Amitriptyline] | B 9.3 |  |  |  |
| CN(C)CC/C=C1/c2ccccc2Sc2ccc(Cl)cc21 [Chlorprothixene] | B 9.52 | 5.48 |  |  |
| Cc1ccnc(NS(=O)(=O)c2ccc(N)cc2)n1 [Sulfamerazine] | 2.22 | 0.15 | 6.81 |  |
| CNCCCN1c2ccccc2CCc2ccccc21 [Desipramine] | B 10.08 |  |  |  |
| Cc1cccc(Nc2ccccc2C(=O)O)c1C [Mefenamic Acid] |  |  | A 4.221 |  |
| CCOC(=O)c1ccc(N)cc1 [Benzocaine] | B 2.39 |  |  |  |
| NS(=O)(=O)c1cc2c(cc1C(F)(F)F)NC(Cc1ccccc1)NS2(=O)=O (stereo not drawn) [Bendroflumethiazide] |  | 1.95 |  |  |
| CC(=O)Nc1ccc(O)cc1 [Paracetamol] |  |  | A 9.52 |  |
| Cc1ccc(Cl)c(Nc2ccccc2C(=O)O)c1Cl [Meclofenamic Acid] |  | 5.9 | A 4.10 |  |
| O=C(O)c1cccnc1Nc1cccc(C(F)(F)F)c1 [Niflumic Acid] | 2.26 | 3.88 |  |  |
| Clc1ccc(COC(Cn2ccnc2)c2ccc(Cl)cc2Cl)c(Cl)c1 (stereo not drawn) [Miconazole] | B 6.316 |  |  |  |
| NS(=O)(=O)c1cc2c(cc1Cl)NC(C(Cl)Cl)NS2(=O)=O (stereo not drawn) [Trichlormethiazide] |  | 0.97 |  |  |
| O=C(CCCN1CCC(O)(c2ccc(Cl)cc2)CC1)c1ccc(F)cc1 [Haloperidol] | B 8.42 |  |  |  |
| COc1ccc([C@@H]2Sc3ccccc3N(CCN(C)C)C(=O)[C@@H]2OC(C)=O)cc1 [Diltiazem] |  | 2.89 |  |  |
| O=C(O)c1ccccc1Nc1cccc(C(F)(F)F)c1 [Flufenamic Acid] |  | 5.56 | A 3.968 |  |
| CNCCCC12CCC(c3ccccc31)c1ccccc12 [Maprotiline] | B 10.33 | 4.85 |  |  |
| CC(C(=O)O)c1ccc(-c2ccccc2)c(F)c1 (stereo not drawn) [Flurbiprofen] |  |  | A 4.01 |  |
| CNCCC(Oc1ccc(C(F)(F)F)cc1)c1ccccc1 (stereo not drawn) [Fluoxetine] | B 10.09 |  |  |  |
| C=CCc1ccccc1OCC(O)CNC(C)C (stereo not drawn) [Alprenolol] | B 9.477 |  |  |  |
